Experimental data published in US20110003820A1, “PYRAZOLOPYRIMIDINES, A PROCESS FOR THEIR PREPARATION AND THEIR USE AS MEDICINE” (MERZ PHARMA GMBH & CO. KGaA, priority 2008, published 2011).
One block for each compound: values may come before it.

Assays:
[1] = target: T1, metabotropic glutamate receptor (mGluR5) (Homo sapiens, UniProt P41594); test: Cytosolic Calcium studies with stably transfected cells (FLIPR, CHO-K1); assay type: cell-based; design: expressed in transfected cells; host or cells: CHO-K1 cells, IPTG-inducible expression; conditions: CHO-K1 cells expressing human mGluR5; agonist L-quisqualic acid at ~80% of maximal signal; read-out: mGluR5_FLIPR_h_CHO_NAM IC50
Experimental: Functional Assays of mGluR5 Receptors
Cytosolic Calcium studies with stably transfected cells:
Chinese hamster ovary cells (CHO-K1 cells), stably transfected for inducible expression of a human metabotropic glutamate receptor mGluR5, are seeded into black clear bottom 96 well plates at a density of 35.000 cells per well. The standard growth medium used (Dulbecco's modified Eagle Medium, DMEM plus L-proline) contains the appropriate inducer isopropyl-β-D-thiogalactopyranosid (IPTG) to achieve optimal receptor expression. One day after seeding the growth medium is exchanged for reconstituted Ca-Kit (Molecular Devices, USA) and incubated for one hour. Ca-Kit is reconstituted in an assay buffer containing 20 mM HEPES pH 7.4, glutamic-pyruvate transaminase, pyridoxal phosphate and sodium pyruvate in Hank's balanced salt solution (HBBS). Agonistic compounds to the receptor elicit increases in cytosolic calcium which can be measured as increases in fluorescence signals by use of a fluorescence imaging plate reader (Molecular Devices).
(§1) The fluorescence signal increase after addition of agonist reflects the increase of cytosolic calcium. Inconsistencies in the amount of cells per well are normalised by using the spatial uniformity correction of the FLIPR software. The mean of replicated temporal data (n=3-5) is calculated and used for graphical representation. For the evaluation of the pharmacology, the calcium changes in response to different concentrations of agonist or antagonist are determined using a maximum minus minimum (MaxMin) calculation.
(§2) All responses (RFU-values) are determined as percentage of control (=maximum response). EC50 and IC50 are calculated according the logistic equation using GraFit 5.0 (Erithacus Software, GB) or Prism 4.0 (GraphPad Software, USA). The compounds of the present invention have a potency (IC50) within a range of about […].

mGluR5 receptors = target: T2, mGluR5 receptors (Rattus norvegicus, UniProt P31424); test: Cytosolic Calcium studies with astrocytes (astrocyte culture test, FLIPR); assay type: cell-based; conditions: primary rat cortical astrocytes; L-quisqualate 100 nM; read-out: mGluR5_FLIPRr_rpA IC50
T2 construct: Primary astrocyte cultures are prepared from cortices of newborn rats; endogenous in cells; host or cells: primary cortical astrocytes of Sprague-Dawley rat pups (2-4 d old)
Experimental: Primary astrocyte cultures are prepared from cortices of newborn rats as described by Booher and Sensenbrenner (1972, Neurobiology 2(3):97-105). Briefly, Sprague-Dawley rat pups (2-4 d old) are decapitated and neocortices are dissected, disintegrated with a nylon filter (pore size 80 μm) and carefully triturated. The cell suspension is plated on poly-D-lysine pre-coated flasks (Costar, Netherlands) and cultivated in Dulbecco's Modified Eagle's Medium (DMEM, Invitrogen, Germany) supplemented with 10% foetal calf serum (FCS, Sigma, Germany), 4 mM glutamine and 50 μg/ml gentamycin (both Biochrom, Germany) at 37° C. in a humidified atmosphere of 5% CO2/95% air for 7 d with exchanging the medium at day 2 and 6.
After 7 days in vitro (DIV), cells are shaken overnight at 250 rpm to remove oligodendrocytes and microglia. The next day, astrocytes are rinsed twice with CMF-PBS (calcium- and magnesium-free phosphate buffered saline, Biochrom, Germany), trypsinized and subplated on poly-D-lysine pre-coated 96-well plates (Greiner, Germany) at a density of 40,000 cells/well. 24 h after establishing the secondary culture the astrocytes are rinsed with PBS^++ (phosphate buffered saline, Biochrom, Germany) and fed with astrocyte-defined medium (ADM) consisting of DMEM containing 1×G5-supplement (Invitrogen, Germany), 0.5 μg/ml heparan sulfate, and 1.5 μg/ml fibronectin (both Sigma, Germany) (Miller et al., (1993) Brain Res. 618(1):175-8). 3 d later the medium is exchanged and the cells incubated for another 2-3 d, so that at the time of experiments astrocytes are 14-15 DIV.
Cytosolic Calcium Studies with Astrocytes:
The increase of cytosolic calcium after stimulation with the mGluR5 agonist L-quisqualate is measured using a fluorometric imaging plate reader (FLIPR) and the Ca-Kit (both Molecular Devices). Prior to addition of agonist or antagonist the medium is aspirated and cells are loaded for 2 h at RT with 150 μl of loading buffer consisting of Ca-sensitive dye reconstituted in sodium chloride (123 mM), potassium chloride (5.4 mM), magnesium chloride (0.8 mM), calcium chloride (1.8 mM), D-glucose (15 mM), and HEPES (20 mM), pH 7.3. Subsequently, plates are transferred to FLIPR to detect calcium increase with the addition of L-quisqualate (100 nM) measured as relative fluorescence units (RFU). If antagonists are tested, these compounds are pre-incubated for 10 minutes at RT before addition of the respective agonist.
as §1, §2

[2] = target: T3, transmembrane allosteric modulatory sites of mGluR5 receptors in cortical membranes (Rattus norvegicus, UniProt P31424); test: [3H]-MMPEP binding assay in rat cortical membranes; conditions: 3H-MMPEP radioligand, read-out: mGluR5_M_MPEP_r_CTX_IC50
T3 construct: from tissue; host or cells: cortex of male Sprague-Dawley rats, membrane preparation
Experimental: Binding Assays for the Characterization of mGluR5 Antagonists
Preparation of Rat Cortical Membranes:
Male Sprague-Dawley rats (200-250 g) are decapitated and their brains are removed rapidly. The cortex is dissected and homogenized in 20 volumes of ice-cold 0.32 M sucrose using a glass-Teflon homogenizer. The homogenate is centrifuged at 1000×g for 10 minutes. The pellet is discarded and the supernatant centrifuged at 20,000×g for 20 minutes. The resulting pellet is re-suspended in 20 volumes of distilled water and centrifuged for 20 minutes at 8000×g. Then the supernatant and the buffy coat are centrifuged at 48,000×g for 20 minutes in the presence of 50 mM Tris-HCl, pH 8.0. The pellet is then re-suspended and centrifuged two to three more times at 48,000×g for 20 minutes in the presence of 50 mM Tris-HCl, pH 8.0. All centrifugation steps are carried out at 4° C. After resuspension in 5 volumes of 50 mM Tris-HCl, pH 8.0 the membrane suspension is frozen rapidly at −80° C.
On the day of assay the membranes are thawed and washed four times by resuspension in 50 mM Tris-HCl, pH 8.0 and centrifugation at 48,000×g for 20 minutes and finally re-suspended in 50 mM Tris-HCl, pH 7.4. The amount of protein in the final membrane preparation (500-700 μg/ml) is determined according to the method of Lowry (Lowry O. H. et al. 1951. J. Biol. Chem. 193, 256-275).
Incubations are started by adding[^3H]-MPEP (50.2 Ci/mmol, 5 nM, Tocris, GB) to vials with 125-250 μg protein (total volume 0.25 ml) and various concentrations of the agents.
Alternatively, assays are performed with [^3H]-MMPEP (2-(3-methoxyphenylethynyl)-6-methylpyridine hydrochloride) as radioligand. The incubations are continued at room temperature for 60 minutes (equilibrium is achieved under the conditions used). […] Incubations are terminated using a Millipore filter system. The samples are rinsed twice with 4 ml of ice-cold assay buffer over glass fibre filters (Schleicher & Schuell, Germany) under a constant vacuum. Following separation and rinse, the filters are placed into scintillation liquid (5 ml Ultima Gold, Perkin Elmer, Germany) and radioactivity retained on the filters is determined with a conventional liquid scintillation counter (Can berra Packard, Germany).

[3] = target: T1, metabotropic glutamate receptor (mGluR5); test: Activity as mGluR5 modulator of prior-art compounds (test not described); conditions: result in words

T2 sequence (P31424 21-1203): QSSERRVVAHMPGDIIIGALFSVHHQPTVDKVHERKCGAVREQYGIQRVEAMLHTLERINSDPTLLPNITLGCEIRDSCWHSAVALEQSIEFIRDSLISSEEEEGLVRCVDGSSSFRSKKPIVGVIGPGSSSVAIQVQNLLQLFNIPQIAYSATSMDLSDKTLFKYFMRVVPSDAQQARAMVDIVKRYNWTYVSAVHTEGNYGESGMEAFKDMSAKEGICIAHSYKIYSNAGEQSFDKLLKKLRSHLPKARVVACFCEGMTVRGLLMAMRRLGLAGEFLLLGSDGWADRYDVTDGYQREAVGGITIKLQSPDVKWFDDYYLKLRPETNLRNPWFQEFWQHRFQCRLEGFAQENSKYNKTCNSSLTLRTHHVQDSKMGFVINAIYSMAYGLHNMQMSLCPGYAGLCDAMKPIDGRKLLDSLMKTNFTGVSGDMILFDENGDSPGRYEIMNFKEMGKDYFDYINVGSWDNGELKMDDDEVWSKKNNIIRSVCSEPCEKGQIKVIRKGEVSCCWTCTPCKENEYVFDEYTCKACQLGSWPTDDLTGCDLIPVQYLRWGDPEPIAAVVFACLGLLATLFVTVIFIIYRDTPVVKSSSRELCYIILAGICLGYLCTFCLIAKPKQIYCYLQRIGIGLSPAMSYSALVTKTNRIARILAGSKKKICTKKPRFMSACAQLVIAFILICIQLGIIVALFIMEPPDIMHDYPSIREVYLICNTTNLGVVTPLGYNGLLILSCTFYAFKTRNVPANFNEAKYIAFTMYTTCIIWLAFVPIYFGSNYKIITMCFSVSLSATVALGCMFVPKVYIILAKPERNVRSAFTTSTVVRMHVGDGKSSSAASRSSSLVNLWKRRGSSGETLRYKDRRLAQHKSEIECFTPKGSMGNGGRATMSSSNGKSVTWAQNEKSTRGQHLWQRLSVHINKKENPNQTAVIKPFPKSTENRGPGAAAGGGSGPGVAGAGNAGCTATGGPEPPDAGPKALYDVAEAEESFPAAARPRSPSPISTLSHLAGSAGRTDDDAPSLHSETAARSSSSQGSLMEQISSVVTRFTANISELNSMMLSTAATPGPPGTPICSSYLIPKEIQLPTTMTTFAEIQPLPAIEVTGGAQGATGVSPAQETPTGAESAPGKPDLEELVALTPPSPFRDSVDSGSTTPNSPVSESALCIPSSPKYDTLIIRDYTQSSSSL
T3 sequence (P31424 21-1203): as above
T1 sequence (P41594 21-1212): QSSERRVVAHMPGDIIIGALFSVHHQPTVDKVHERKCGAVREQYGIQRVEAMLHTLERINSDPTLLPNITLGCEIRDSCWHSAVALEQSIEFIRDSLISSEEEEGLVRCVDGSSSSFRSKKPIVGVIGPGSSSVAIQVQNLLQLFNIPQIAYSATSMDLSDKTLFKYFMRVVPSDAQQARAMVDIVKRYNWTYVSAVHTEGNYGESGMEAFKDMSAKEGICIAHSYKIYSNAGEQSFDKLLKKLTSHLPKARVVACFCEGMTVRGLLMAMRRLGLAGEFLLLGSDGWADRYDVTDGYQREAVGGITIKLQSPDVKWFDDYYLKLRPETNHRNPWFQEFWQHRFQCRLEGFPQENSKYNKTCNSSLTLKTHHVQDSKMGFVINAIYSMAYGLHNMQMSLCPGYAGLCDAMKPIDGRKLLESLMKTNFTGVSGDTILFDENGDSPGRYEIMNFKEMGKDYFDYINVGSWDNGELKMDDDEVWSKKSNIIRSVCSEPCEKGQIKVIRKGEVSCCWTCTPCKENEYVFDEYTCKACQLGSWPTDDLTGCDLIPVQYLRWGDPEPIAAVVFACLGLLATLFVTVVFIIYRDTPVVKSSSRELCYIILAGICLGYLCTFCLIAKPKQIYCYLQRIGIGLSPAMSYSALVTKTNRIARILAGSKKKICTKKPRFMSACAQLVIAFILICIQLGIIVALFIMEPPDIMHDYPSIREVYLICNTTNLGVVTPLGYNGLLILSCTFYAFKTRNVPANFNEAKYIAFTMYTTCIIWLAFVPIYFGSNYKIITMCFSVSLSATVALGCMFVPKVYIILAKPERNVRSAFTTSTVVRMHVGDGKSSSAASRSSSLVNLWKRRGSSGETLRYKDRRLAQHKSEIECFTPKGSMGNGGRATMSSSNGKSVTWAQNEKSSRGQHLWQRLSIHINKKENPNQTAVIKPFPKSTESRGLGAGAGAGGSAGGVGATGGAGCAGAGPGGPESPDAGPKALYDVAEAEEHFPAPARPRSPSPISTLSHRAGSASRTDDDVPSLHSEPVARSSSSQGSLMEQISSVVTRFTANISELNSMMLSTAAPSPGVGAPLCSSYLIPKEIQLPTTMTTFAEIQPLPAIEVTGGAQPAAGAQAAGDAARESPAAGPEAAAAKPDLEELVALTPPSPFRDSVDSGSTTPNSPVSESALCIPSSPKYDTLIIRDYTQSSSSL

Structure (SMILES): Cc1ccc2n1CCN(C(=O)c1cc3ncc(Br)cn3n1)[C@@H]2C [(R)-(6-Bromo-pyrazolo[1,5-a]pyrimidin-2-yl)-(1,6-dimethyl-3,4-dihydro-1H-pyrrolo[1,2-a]pyrazin-2-yl)-methanone]
- IC50 [1]: 118 nM
- IC50 (mGluR5 receptors): 34.3 nM
- IC50 [2]: 74 nM

Structure (SMILES): Cc1ccc2n1CCN(C(=O)c1cc3ncc(Cl)cn3n1)C2C (stereo not drawn) [Example 5, (6-Chloro-pyrazolo[1,5-a]pyrimidin-2-yl)-(1,6-dimethyl-3,4-dihydro-1H-pyrrolo[1,2-a]pyrazin-2-yl)-methanone]
- IC50 [1]: 327 nM
- IC50 (mGluR5 receptors): 87.3 nM
- IC50 [2]: 274 nM

Structure (SMILES): CC1c2ccc(Cl)n2CCN1C(=O)c1cc2ncc(Cl)cn2n1 (stereo not drawn) [Example 29, (6-Chloro-1-methyl-3,4-dihydro-1H-pyrrolo[1,2-a]pyrazin-2-yl)-(6-chloro-pyrazolo[1,5-a]pyrimidin-2-yl)-methanone]
- IC50 [1]: 91 nM
- IC50 (mGluR5 receptors): 21.9 nM
- IC50 [2]: 42 nM

Structure (SMILES): CC1c2ccc(Cl)n2CCN1C(=O)c1cc2ncc(Br)cn2n1 (stereo not drawn) [Example 31, (6-Chloro-1-methyl-3,4-dihydro-1H-pyrrolo[1,2-a]pyrazin-2-yl)-(6-bromo-pyrazolo[1,5-a]pyrimidin-2-yl)-methanone]
- IC50 [1]: 84.4 nM
- IC50 (mGluR5 receptors): 22.5 nM
- IC50 [2]: 44.5 nM

Structure (SMILES): CC1c2ccc(Br)n2CCN1C(=O)c1cc2ncc(Cl)cn2n1 (stereo not drawn) [Example 37, (6-Bromo-1-methyl-3,4-dihydro-1H-pyrrolo[1,2-a]pyrazin-2-yl)-(6-chloro-pyrazolo[1,5-a]pyrimidin-2-yl)-methanone]
- IC50 [1]: 34.2 nM
- IC50 (mGluR5 receptors): 17 nM
- IC50 [2]: 73 nM

Structure (SMILES): O=C(c1cc2ncc(Br)cn2n1)N1CCCCC1 [Example B308, (6-Bromopyrazolo[1,5-a]pyrimidin-2-yl)-piperidin-1-yl-methanone]
- activity as metabotropic glutamate receptor (mGluR5) modulator [3]: no particular activity

Structure (SMILES): O=C(c1cc2ncc(Br)cn2n1)N1CCc2ccccc2C1 [M, (6-Bromo-pyrazolo[1,5-a]pyrimidin-2-yl)-(1,2,3,4-tetrahydro-isoquinolin-2-yl)-methanone]
- activity as metabotropic glutamate receptor (mGluR5) modulator [3]: only a limited activity
- selectivity [3]: not selective

Next, values leading:

- IC50 [1]: 24.5 nM
- IC50 (mGluR5 receptors): 7.8 nM
Structure (SMILES): C[C@@H]1c2ccc(Cl)n2CCN1C(=O)c1cc2ncc(Br)cn2n1 [(R)-(6-Bromo-pyrazolo[1,5-a]pyrimidin-2-yl)-(6-chloro-1-methyl-3,4-dihydro-1H-pyrrolo[1,2-a]pyrazin-2-yl)-methanone]

- IC50 [1]: 222 nM
- IC50 (mGluR5 receptors): 50 nM
- IC50 [2]: 219 nM
Structure (SMILES): Cc1ccc2n1CCN(C(=O)c1cc3ncc(Br)cn3n1)C2C (stereo not drawn) [Example 7, (6-Bromo-pyrazolo[1,5-a]pyrimidin-2-yl)-(1,6-dimethyl-3,4-dihydro-1H-pyrrolo[1,2-a]pyrazin-2-yl)-methanone]

- IC50 [1]: 74.5 nM
- IC50 (mGluR5 receptors): 15 nM
- IC50 [2]: 54.9 nM
Structure (SMILES): CC1c2ccc(Br)n2CCN1C(=O)c1cc2ncc(Br)cn2n1 (stereo not drawn) [Example 39, (6-Bromo-1-methyl-3,4-dihydro-1H-pyrrolo[1,2-a]pyrazin-2-yl)-(6-bromo-pyrazolo[1,5-a]pyrimidin-2-yl)-methanone]

- IC50 [1]: 166 nM
- IC50 (mGluR5 receptors): 82.3 nM
- IC50 [2]: 247 nM
Structure (SMILES): CN1c2ccccc2CCN1C(=O)c1cc2ncc(Cl)cn2n1 [Example 181, (6-Chloro-pyrazolo[1,5-a]pyrimidin-2-yl)-(1-methyl-3,4-dihydro-1H-cinnolin-2-yl)-methanone]

- IC50 [1]: 189 nM
- IC50 (mGluR5 receptors): 63.7 nM
- IC50 [2]: 281 nM
Structure (SMILES): CN1c2ccccc2CCN1C(=O)c1cc2ncc(Br)cn2n1 [Example 182, (6-Bromo-pyrazolo[1,5-a]pyrimidin-2-yl)-(1-methyl-3,4-dihydro-1H-cinnolin-2-yl)-methanone]

- activity as metabotropic glutamate receptor (mGluR5) modulator [3]: no particular activity
Structure (SMILES): O=C(c1cc2ncc(Br)cn2n1)N1CCOCC1 [Example B310, (6-Bromopyrazolo[1,5-a]pyrimidin-2-yl)-morpholin-4-yl-methanone]
